In ChEMBL document CHEMBL4190297, “Cafestol, a Bioactive Substance in Coffee, Has Antidiabetic Properties in KKAy Mice” (J Nat Prod, 2017):
The source made the active and inactive calls. The rule behind the calls is not given here.

Key:
Mus musculus [1] = organism: Mus musculus; assay: Induction of […] glucose-stimulated insulin secretion in pancreatic islets isolated from KK-Ay diabetic mouse model at 0.4 mg added daily to normal chow pellets for 10 weeks followed by glucose stimulation of isolated pancreatic islets for 1 hr by radioimmunoassay relative to control; format: functional
Mus musculus [2] = organism: Mus musculus; assay: Antidiabetic activity in KK-Ay diabetic mouse model assessed as effect on total cholesterol level at 0.14 to 1.1 mg added daily to normal chow pellets for 10 weeks by colorimetric analysis; format: functional, organism-based
Mus musculus [3] = organism: Mus musculus; assay: Effect on Mtor mRNA expression levels in liver of KK-Ay diabetic mouse model at 0.4 to 1.1 mg added daily to normal chow pellets for 10 weeks by qRT-PCR analysis; format: functional, organism-based
Mus musculus [4] = organism: Mus musculus; assay: Effect on PPARalpha mRNA expression levels in muscle of KK-Ay diabetic mouse model at 0.4 to 1.1 mg added daily to normal chow pellets for 10 weeks by qRT-PCR analysis; format: functional, organism-based
Mus musculus [5] = organism: Mus musculus; assay: Effect on PPARgamma mRNA expression levels in muscle of KK-Ay diabetic mouse model at 0.4 to 1.1 mg added daily to normal chow pellets for 10 weeks by qRT-PCR analysis; format: functional, organism-based

C[C@@]12CCc3occc3[C@H]1CC[C@@]13C[C@H](CC[C@H]12)[C@@](O)(CO)C3
Activity (Mus musculus [1]): 87%
Activity (Mus musculus [2]): inactive
Activity (Mus musculus [3]): inactive
Activity (Mus musculus [4]): inactive
Activity (Mus musculus [5]): inactive
